PubChem BioAssay AID330 (DTP/NCI, 2004)
Values joined by “and” are separate entries in the source; they are usually repeats but may differ in a detail not shown here. Equal entries are not always repeated. Toxic doses and inconclusive results are not listed.

System: P388 leukemia ip, CD2F1 mice, survival T/C
Test: NCI In Vivo Anticancer Drug Screen. Data for tumor model P388 Leukemia (intraperitoneal) in CD2F1 (CDF1) mice
Settings: endpoint: median survival time, higher = longer survival
How it was run: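 Mice carrying the transplanted tumor received test compound or vehicle. Survival was recorded in each group, and the value is the treated-group measurement divided by that of the vehicle-treated control group.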

[1] = dose: 100.0 mg/kg/injection, schedule: Q04DX003 (ip), vehicle: saline with Tween-80
[2] = dose: 200.0 mg/kg/injection, schedule: Q04DX003 (ip), vehicle: saline with Tween-80
[3] = dose: 400.0 mg/kg/injection, schedule: Q04DX003 (ip), vehicle: saline with Tween-80
[4] = dose: 60.0 mg/kg/injection, schedule: Q01DX005 (ip), vehicle: saline with Tween-80
[5] = dose: 120.0 mg/kg/injection, schedule: Q01DX005 (ip), vehicle: saline with Tween-80

## CC(=O)OC(C)C1C2=C(C(=O)CC1(C)O)C(=O)c1c(ccc(-c3ccc4c(c3O)C(=O)C3=C(C4=O)C(C(C)OC(C)=O)C(C)(O)CC3=O)c1O)C2=O (centres undefined)
dose: 3.13 mg/kg/injection, schedule: Q01DX009 (ip), vehicle: saline with Tween-80
  T/C: 122 % of control
dose: 6.25 mg/kg/injection, schedule: Q01DX009 (ip), vehicle: saline with Tween-80
  T/C: 119 % of control

## CCOC(=O)CC1Cc2ccc3ccc(O)cc3c2C1=O (centres undefined)
dose: 12.5 mg/kg/injection, schedule: Q01DX009 (ip), vehicle: distilled water + Tween-80
  T/C: 94 % of control
dose: 25.0 mg/kg/injection, schedule: Q01DX009 (ip), vehicle: distilled water + Tween-80
  T/C: 95 % of control
dose: 50.0 mg/kg/injection, schedule: Q01DX009 (ip), vehicle: distilled water + Tween-80
  T/C: 92 % of control
dose: 100.0 mg/kg/injection, schedule: Q01DX009 (ip), vehicle: distilled water + Tween-80
  T/C: 86 % of control
dose: 200.0 mg/kg/injection, schedule: Q01DX009 (ip), vehicle: distilled water + Tween-80
  T/C: 92 % of control

## O=C(O)CC(=O)O.[NH-]C1CCCC1[NH-].[Pt+2]
dose: 6.25 mg/kg/injection, schedule: Q04DX002 (ip), vehicle: saline
  T/C: 114 % of control
dose: 50.0 mg/kg/injection, schedule: Q04DX002 (ip), vehicle: saline with Tween-80
  T/C: 169 % of control
dose: 100.0 mg/kg/injection, schedule: Q04DX002 (ip), vehicle: saline with Tween-80
  T/C: 185 % of control
dose: 200.0 mg/kg/injection, schedule: Q04DX002 (ip), vehicle: saline with Tween-80
  T/C: 197 % of control

## O=[N+]([O-])c1cc2c(ccc3ccccc32)o1
dose: 50.0 mg/kg/injection, schedule: Q01DX005 (ip), vehicle: Klucel (hydroxypropylcellulose) (HPC)
  T/C: 102 % of control
dose: 100.0 mg/kg/injection, schedule: Q01DX005 (ip), vehicle: Klucel (hydroxypropylcellulose) (HPC)
  T/C: 103 % of control
dose: 200.0 mg/kg/injection, schedule: Q01DX005 (ip), vehicle: Klucel (hydroxypropylcellulose) (HPC)
  T/C: 117 % of control

## O=C1c2ccccc2C(=O)N1CNc1cccc(NCN2C(=O)c3ccccc3C2=O)c1
dose: 100.0 mg/kg/injection, schedule: Q01DX009 (ip), vehicle: saline with Tween-80
  T/C: 110 % of control
dose: 200.0 mg/kg/injection, schedule: Q01DX009 (ip), vehicle: saline with Tween-80
  T/C: 95 % of control
dose: 400.0 mg/kg/injection, schedule: Q01DX009 (ip), vehicle: saline with Tween-80
  T/C: 100 % of control

## CC(C)Oc1ccc2c(c1)Sc1ccc(Cl)cc1N2
[1]
  T/C: 100 % of control
[2]
  T/C: 100 % of control
[3]
  T/C: 100 % of control

## CNC1C(c2ccc(C)cc2)=NN(c2ccccc2)C1c1ccccc1 (centres undefined)
dose: 100.0 mg/kg/injection, schedule: Q01DX001 (ip), vehicle: saline sonified
  T/C: 100 % of control
dose: 200.0 mg/kg/injection, schedule: Q01DX001 (ip), vehicle: saline sonified
  T/C: 100 % of control
dose: 400.0 mg/kg/injection, schedule: Q01DX001 (ip), vehicle: saline sonified
  T/C: 105 % of control

## CCN1C(=NCCO)NS(=O)(=O)c2ccccc21
[4]
  T/C: 95 % of control
[5]
  T/C: 106 % of control
dose: 240.0 mg/kg/injection, schedule: Q01DX005 (ip), vehicle: saline with Tween-80
  T/C: 99 % of control

## O=C(OCCO)c1c(Cl)c(Cl)c(Cl)c(Cl)c1-c1c2cc(Br)c(=O)c(Br)c-2oc2c(Br)c(O)c(Br)cc12
dose: 60.0 mg/kg/injection, schedule: Q01DX005 (ip), vehicle: saline
  T/C: 94 % of control
dose: 120.0 mg/kg/injection, schedule: Q01DX005 (ip), vehicle: saline
  T/C: 92 % of control

## COc1ccc(CC(=O)NCCc2ccc3cc(OC)c(OC)cc3c2)cc1OC
[1]
  T/C: 100 % of control
[2]
  T/C: 100 % of control
[3]
  T/C: 100 % of control

## C[N+]1(CSC(=O)c2ccccc2)CCCCC1
dose: 3.12 mg/kg/injection, schedule: Q01DX009 (ip), vehicle: saline
  T/C: 110 % of control
dose: 6.25 mg/kg/injection, schedule: Q01DX009 (ip), vehicle: saline
  T/C: 114 % of control
dose: 12.5 mg/kg/injection, schedule: Q01DX009 (ip), vehicle: saline with Tween-80
  T/C: 115 % of control and 91 % of control
dose: 12.5 mg/kg/injection, schedule: Q01DX009 (ip), vehicle: saline
  T/C: 107 % of control and 110 % of control
dose: 50.0 mg/kg/injection, schedule: Q01DX009 (ip), vehicle: saline with Tween-80
  T/C: 100 % of control and 116 % of control

## O=C(Nc1ccc(Cl)cc1)Nc1nnc2nc(C(C(=O)c3cccs3)c3nc4nnc(NC(=O)Nc5ccc(Cl)cc5)n4[nH]c3=O)c(=O)[nH]n12
[4]
  T/C: 91 % of control
[5]
  T/C: 94 % of control

## COc1ccc([N+](=O)[O-])cc1C[S+](C)C
dose: 6.25 mg/kg/injection, schedule: Q01DX009 (ip), vehicle: Klucel (hydroxypropylcellulose) (HPC)
  T/C: 108 % of control
dose: 12.5 mg/kg/injection, schedule: Q01DX009 (ip), vehicle: Klucel (hydroxypropylcellulose) (HPC)
  T/C: 107 % of control
dose: 25.0 mg/kg/injection, schedule: Q01DX009 (ip), vehicle: Klucel (hydroxypropylcellulose) (HPC)
  T/C: 112 % of control

## O=C(O)c1ccccc1N1C(=O)CC2(CCCC2)C1=O
dose: 50.0 mg/kg/injection, schedule: Q01DX009 (ip), vehicle: Klucel (hydroxypropylcellulose) (HPC)
  T/C: 101 % of control
dose: 100.0 mg/kg/injection, schedule: Q01DX009 (ip), vehicle: Klucel (hydroxypropylcellulose) (HPC)
  T/C: 98 % of control
dose: 200.0 mg/kg/injection, schedule: Q01DX009 (ip), vehicle: Klucel (hydroxypropylcellulose) (HPC)
  T/C: 94 % of control
